# Measured values from patent US20260138990A1, “TRICYCLIC FUSED IMIDAZOLE COMPOUNDS AS CD38 MODULATORS AND USES THEREOF” (AEOVIAN PHARMACEUTICALS, INC., priority 2023, published 2026).
# Where a name gives a salt, the structure may show the parent alone.
# Tests used:
# human CD38 = molecular target: T1, human CD38 (Homo sapiens, UniProt P28907); experiment: NAD+ cyclase activity assay with human recombinant CD38 protein (ε-NAD fluorescence); type: biochemical; details: 1.9 nM human CD38, substrate ε-NAD, 30 min preincubation, fluorescence 300/410 nm
# T1 construct: purchased Bio-Techne GmbH AVI2404
# T1 sequence (P28907 1-300): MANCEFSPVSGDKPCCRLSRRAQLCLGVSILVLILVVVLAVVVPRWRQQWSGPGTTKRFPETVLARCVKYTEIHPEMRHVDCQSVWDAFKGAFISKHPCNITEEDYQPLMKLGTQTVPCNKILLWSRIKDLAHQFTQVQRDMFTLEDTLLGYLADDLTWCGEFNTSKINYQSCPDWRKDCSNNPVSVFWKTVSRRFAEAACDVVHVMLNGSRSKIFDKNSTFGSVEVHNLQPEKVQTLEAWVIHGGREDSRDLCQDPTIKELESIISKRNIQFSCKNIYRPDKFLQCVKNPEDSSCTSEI
# Procedure, shortened: (§1)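 Recombinant CD38 (0.6 nM mouse or 1.9 nM human) in 40 mM HEPES/NaOH pH 7.5, 250 mM sucrose, 0.01% Tween was preincubated with compound for 30 min at room temperature, then […] ε-NAD was added. Fluorescence (ex 300/em 410 nm) was read continuously. Slopes over the linear phase were normalised to enzyme and no-enzyme controls and fitted from 12-point, threefold dose-response curves.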
# mouse CD38 = molecular target: T2, mouse CD38 (Mus musculus, UniProt P56528); experiment: NAD+ cyclase activity assay with mouse recombinant CD38 protein (ε-NAD fluorescence); type: biochemical; details: 0.6 nM mouse CD38, substrate ε-NAD, 30 min preincubation, fluorescence 300/410 nm
# T2 construct: purchased Bio-Techne GmbH 4947-AC
# T2 sequence (P56528 1-304): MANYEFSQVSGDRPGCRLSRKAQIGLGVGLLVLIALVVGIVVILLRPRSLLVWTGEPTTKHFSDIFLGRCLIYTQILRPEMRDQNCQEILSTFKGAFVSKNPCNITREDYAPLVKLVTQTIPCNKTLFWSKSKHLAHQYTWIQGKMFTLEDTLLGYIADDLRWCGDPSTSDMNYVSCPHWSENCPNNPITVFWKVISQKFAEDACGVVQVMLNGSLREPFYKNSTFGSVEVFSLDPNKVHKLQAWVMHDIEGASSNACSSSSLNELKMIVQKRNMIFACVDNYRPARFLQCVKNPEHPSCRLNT
# Procedure, shortened: as §1
Compound,IC50 (human CD38) [nM],IC50 (mouse CD38) [nM]
"O=C(Nc1ccc2scnc2c1)c1ccc2c(c1)-c1cncn1CCO2 [Compound 7A, N-(Benzo[d]thiazol-5-yl)-5,6-dihydrobenzo[f]imidazo[1,5-d][1,4]oxazepine-10-carboxamide]",< 30,1 to 10
"CNc1nc2ccc(C(=O)N[C@@H]3CCCOC3)cc2n2cncc12 [Compound 28A, (R)-4-(Methylamino)-N-(tetrahydro-2H-pyran-3-yl)imidazo[1,5-a]quinoxaline-8-carboxamide]",< 30,1 to 10
"O=C(Nc1ccc2c(c1)CNC2)c1ccc2c(c1)-c1cncn1CCO2 [Compound 24A, N-(Isoindolin-5-yl)-5,6-dihydrobenzo[f]imidazo[1,5-d][1,4]oxazepine-10-carboxamide hydrochloride]",30 to 100,10 to 100
"O=C(NC1CCC(F)(F)CC1)c1cc2c(c(F)c1F)OCCn1cncc1-2 [Compound 154A, N-(4,4-Difluorocyclohexyl)-8,9-difluoro-5,6-dihydrobenzo[f]imidazo[1,5-d][1,4]oxazepine-10-carboxamide]",< 30,< 1
"N-((1s,4s)-4-((Tetrahydrofuran-2-yl)methoxy)cyclohexyl)-5,6-dihydrobenzo[f]imidazo[1,5-d][1,4]oxazepine-10-carboxamide [Compound 75A]",> 1000,> 100
"Cn1ccc(NC(=O)c2ccc3c(c2)-c2cncn2CCO3)cc1=O [Compound 36A, N-(1-Methyl-2-oxo-1,2-dihydropyridin-4-yl)-5,6-dihydrobenzo[f]imidazo[1,5-d][1,4]oxazepine-10-carboxamide]",< 30,< 1
"O=C(N[C@@H]1CCCOC1)c1ccc2[nH]c(=O)c3cncn3c2c1 [Compound 13A, (R)-4-Oxo-N-(tetrahydro-2H-pyran-3-yl)-4,5-dihydroimidazo[1,5-a]quinoxaline-8-carboxamide]",> 1000,> 100
"COCCNC(=O)[C@H]1CC[C@H](NC(=O)c2ccc3c(c2)-c2cncn2CCO3)CC1 [Compound 59A, N-((1r,4r)-4-((2-Methoxyethyl)carbamoyl)cyclohexyl)-5,6-dihydrobenzo[f]imidazo[1,5-d][1,4]oxazepine-10-carboxamide]",< 30,1 to 10
"O=C(N[C@H]1CC[C@@H](OCCC(F)(F)F)CC1)c1ccc2c(c1)-c1cncn1CCO2 [Compound 89A, N-((1s,4s)-4-(3,3,3-Trifluoropropoxy)cyclohexyl)-5,6-dihydrobenzo[f]imidazo[1,5-d][1,4]oxazepine-10-carboxamide]",100 to 1000,> 100
"O=C(N[C@@H]1CCC(F)(F)C1)c1cc(F)c2c(c1)-c1cncn1CCO2 [Compound 108A, (R)—N-(3,3-Difluorocyclopentyl)-8-fluoro-5,6-dihydrobenzo[f]imidazo[1,5-d][1,4]oxazepine-10-carboxamide]",< 30,< 1
"CN1CCOc2ncc(NC(=O)c3ccc4c(c3)-c3cncn3CCO4)cc21 [Compound 101A, N-(1-Methyl-2,3-dihydro-1H-pyrido[2,3-b][1,4]oxazin-7-yl)-5,6-dihydrobenzo[f]imidazo[1,5-d][1,4]oxazepine-10-carboxamide]",< 30,< 1
"O=C(N[C@H]1CC[C@H](N2CCC(F)(F)C2)CC1)c1ccc2c(c1)-c1cncn1CCO2 [Compound 71A, N-((1r,4r)-4-(3,3-Difluoropyrrolidin-1-yl)cyclohexyl)-5,6-dihydrobenzo[f]imidazo[1,5-d][1,4]oxazepine-10-carboxamide]",< 30,1 to 10
"O=C(N[C@@H]1CCS(=O)(=O)C1)c1ccc2c(c1)-c1cncn1CCO2 [Compound 2A, (R)—N-(1,1-Dioxidotetrahydrothiophen-3-yl)-5,6-dihydrobenzo[f]imidazo[1,5-d][1,4]oxazepine-10-carboxamide]",< 30,1 to 10
"CC1(C)CC(NC(=O)c2ccc3c(c2)-c2cncn2CCO3)C1 [Compound 141A, N-(3,3-Dimethylcyclobutyl)-5,6-dihydrobenzo[f]imidazo[1,5-d][1,4]oxazepine-10-carboxamide]",< 30,1 to 10
"COCCC(=O)N[C@H]1CC[C@H](NC(=O)c2ccc3c(c2)-c2cncn2CCO3)CC1 [Compound 67A, N-((1r,4r)-4-(3-Methoxypropanamido)cyclohexyl)-5,6-dihydrobenzo[f]imidazo[1,5-d][1,4]oxazepine-10-carboxamide]",100 to 1000,1 to 10
"O=C(Nc1cnc(N2CC(F)(F)C2)nc1)c1ccc2c(c1)-c1cncn1CCO2 [Compound 99A, N-(2-(3,3-Difluoroazetidin-1-yl)pyrimidin-5-yl)-5,6-dihydrobenzo[f]imidazo[1,5-d][1,4]oxazepine-10-carboxamide]",< 30,10 to 100
"O=C(NC1CC(F)(F)C1)c1cc(Cl)c2c(c1)-c1cncn1CCO2 [Compound 134A, 8-Chloro-N-(3,3-difluorocyclobutyl)-5,6-dihydrobenzo[f]imidazo[1,5-d][1,4]oxazepine-10-carboxamide]",< 30,< 1
"O=C(N[C@H]1CC[C@@H](OCC(F)(F)F)CC1)c1cc(F)c2c(c1)-c1cncn1CCO2 [Compound 156A, 8-Fluoro-N-((1s,4s)-4-(2,2,2-trifluoroethoxy)cyclohexyl)-5,6-dihydrobenzo[f]imidazo[1,5-d][1,4]oxazepine-10-carboxamide]",30 to 100,10 to 100
"O=C(N[C@H]1CC[C@H](OCC(F)(F)F)CC1)c1ccc2c(c1)-c1cncn1CCO2 [Compound 122A, N-((1r,4r)-4-(2,2,2-Trifluoroethoxy)cyclohexyl)-5,6-dihydrobenzo[f]imidazo[1,5-d][1,4]oxazepine-10-carboxamide]",< 30,1 to 10
"CC1(C)CC(NC(=O)c2cc(F)c3c(c2)-c2cncn2CCO3)C1 [Compound 143A, N-(3,3-Dimethylcyclobutyl)-8-fluoro-5,6-dihydrobenzo[f]imidazo[1,5-d][1,4]oxazepine-10-carboxamide]",< 30,< 1
"COC(C)(C)CO[C@H]1CC[C@H](NC(=O)c2ccc3c(c2)-c2cncn2CCO3)CC1 [Compound 127A, N-((1r,4r)-4-(2-Methoxy-2-methylpropoxy)cyclohexyl)-5,6-dihydrobenzo[f]imidazo[1,5-d][1,4]oxazepine-10-carboxamide]",< 30,1 to 10
"CC(C)(O)[C@H]1CC[C@H](NC(=O)c2ccc3c(c2)-c2cncn2CCO3)CC1 [Compound 58A, N-((1r,4r)-4-(2-Hydroxypropan-2-yl)cyclohexyl)-5,6-dihydrobenzo[f]imidazo[1,5-d][1,4]oxazepine-10-carboxamide]",< 30,< 1
"O=C(Nc1cnc2c(c1)OCCO2)c1cc(Cl)c2c(c1)-c1cncn1CCO2 [Compound 129A, 8-Chloro-N-(2,3-dihydro-[1,4]dioxino[2,3-b]pyridin-7-yl)-5,6-dihydrobenzo[f]imidazo[1,5-d][1,4]oxazepine-10-carboxamide]",< 30,1 to 10
"O=C(N[C@H]1CCc2ccccc21)c1ccc2c(c1)-c1cncn1CCO2 [Compound 6A, (S)—N-(2,3-Dihydro-1H-inden-1-yl)-5,6-dihydrobenzo[f]imidazo[1,5-d][1,4]oxazepine-10-carboxamide]",< 30,1 to 10
"O=C(N[C@H]1CC[C@H](CCO)CC1)c1ccc2c(c1)-c1cncn1CCO2 [Compound 56A, N-((1r,4r)-4-(2-Hydroxyethyl)cyclohexyl)-5,6-dihydrobenzo[f]imidazo[1,5-d][1,4]oxazepine-10-carboxamide]",< 30,1 to 10
"O=C(N[C@H]1CC[C@@H](OCC(F)(F)F)CC1)c1cc(Cl)c2c(c1)-c1cncn1CCO2 [Compound 158A, 8-Chloro-N-((1s,4s)-4-(2,2,2-trifluoroethoxy)cyclohexyl)-5,6-dihydrobenzo[f]imidazo[1,5-d][1,4]oxazepine-10-carboxamide]",30 to 100,1 to 10
"O=C(Nc1ccc2c(c1)CCS2(=O)=O)c1ccc2c(c1)-c1cncn1CCO2 [Compound 19A, N-(1,1-Dioxido-2,3-dihydrobenzo[b]thiophen-5-yl)-5,6-dihydrobenzo[f]imidazo[1,5-d][1,4]oxazepine-10-carboxamide]",< 30,< 1
"CC(C)(CO[C@H]1CC[C@H](NC(=O)c2cc(Cl)c3c(c2)-c2cncn2CCO3)CC1)C(F)(F)F [Compound 170A, 8-Chloro-N-((1r,4r)-4-(3,3,3-trifluoro-2,2-dimethylpropoxy)cyclohexyl)-5,6-dihydrobenzo[f]imidazo[1,5-d][1,4]oxazepine-10-carboxamide]",30 to 100,1 to 10
